Legend:
Type in all cases: in vivo, human
[1] = Safety and tolerability in chronic hepatitis B patients
Description: (§1) Three clinical studies (Part 1 and 2 of YP39364 (NCT02952924), YP39406 (NCT03570658), and YP40218 (NCT03717064)) have been completed to characterize the safety, tolerability, pharmacokinetics (PK) and pharmacodynamics (PD) of Compound (I) in both healthy volunteers and CHB patients. […] Thus, there is an unmet medical need for a novel method of treatment with Compound (I) that could achieve a higher rate of functional cure with a finite treatment duration and excellent tolerability.
In this invention, methods of Compound (I) monotherapy and Compound (I) in combination with other anti-HBV agents for 12-144 weeks were developed. […] Comparing with current NUC treatment, the current finite treatment methods of this invention minimize the risk of drug resistance and decrease adverse effects of NUC treatment (e.g. the risk of renal injury, bone density loss and creatine kinase elevation, etc).

HBV [2] = experiment: Completed clinical studies (YP39364 Part 1 and 2, YP39406, YP40218), four-week treatment, PD markers; conditions: four-week treatment with Compound (I)
Description: as §1

HBV [3] = experiment: Treatment methods of the invention, Compound (I) monotherapy or combination for 12-144 weeks in patients infected with HBV
Description: Study population: patients infected with HBV (Terrault NA, Lok ASF, McMahon BJ, et al. Update on prevention, diagnosis, and treatment of chronic hepatitis B: AASLD 2018 hepatitis B guidance. Hepatology. 2018; 67:1560-1599.European Association for the Study of the Liver. EASL 2017 Clinical Practice Guidelines on the management of hepatitis B virus infection. J Hepatol. 2017; 67:370-398.).
General Methods: To explore the effects of Compound (I) on HBsAg loss or decline, Compound (I) is administered following the dose regimen listed in Table 1. The primary measure is the quantitative HBsAg decline or HBsAg loss (<0.05 IU/mL, measured by Elecsys® HBsAg II (Roche)®) at 24 weeks post treatment.

[4] = immune tolerant patients (HBV DNA levels elevated, ALT levels normal)

## CCOC(=O)C1=C(CN2CCN3C(=O)N(CC(C)(C)C(=O)O)C[C@@H]3C2)NC(c2nccs2)=N[C@H]1c1cccc(F)c1C [Compound (I)]
[1]
  Safety and tolerability: safe and well tolerated
HBV [2]
  HBV DNA (short-term PD marker): robust decline
  HBV RNA (short-term PD marker): robust decline
  HBsAg decline: significant decline of HBsAg has not been observed
HBV [3]; Compound (I) in combination with other anti-HBV agents for 12-144 weeks
  hepatitis B surface antigen (HBsAg) decline or loss: significant hepatitis B surface antigen (HBsAg) decline or loss
HBV [3]; [4]
  HBV DNA decline: robust HBV DNA and HBV RNA decline
  HBV RNA decline: robust HBV DNA and HBV RNA decline

— patent publication US20220370447A1, “METHOD OF TREATING HBV INFECTION USING A CORE PROTEIN ALLOSTERIC MODULATOR” (Hoffmann-La Roche Inc., priority 2019, published 2022)
